Experiment: gradient 5% acetonitrile 3 min, to 50% in 2 min, to 85% in 15 min, held 3 min, 100 µL/min
Conditions: column: Zorbax Extend-C18 2.1 x 50 mm; eluents: water / acetonitrile, 0.1% formic acid
Procedure, shortened: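 Pure standards were analyzed in mixtures of ~100 molecules using HPLC coupled to a quadrupole time-of-flight mass spectrometer, in both positive and negative ionization mode. Separation used a Zorbax Extend-C18 column (2.1 × 50 mm, 1.8 μm) at 100 μL/min, with water and acetonitrile each containing 0.1% formic acid. Dead and dwell volumes were 40 μL and 900 μL, and data were collected over 3 months. Retention time was read from computationally picked adduct peaks, each inspected manually.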

RP-LC retention time	Compound
820 s	CCOc1ccccc1C(=O)N1CCN(S(=O)(=O)c2cc3c4c(c2)CCC(=O)N4CCC3)CC1
661 s	COc1cc(C(CC(=O)N2CCCC2)N2Cc3ccccc3C2=O)cc(OC)c1OC (stereo unspecified)
624 s	CC(=O)N1CCCc2cc(S(=O)(=O)N3CCC(C(=O)N4CCN(C)CC4)CC3)ccc21
777 s	CCc1cc(C2CCCN2C(=O)Cc2ccccc2F)on1 (stereo unspecified)
1020 s	Cc1cc(C)c(S(=O)(=O)NCc2c(-c3ccccc3)nc3sc(C)nn23)c(C)c1
876 s	O=C(NC1(c2nc(-c3ccncc3)no2)CCCCC1)c1ccc2c(c1)OCO2
631 s	O=S(=O)(Cc1ccccc1)N1CCCC(Cc2nncn2CC2CC2)C1 (stereo unspecified)
955 s	COc1ccc(NC(=O)CSc2nccnc2Oc2ccc(C)cc2)cc1OC
738 s	O=S(=O)(c1ccc(F)cc1)N1CC(F)(F)C[C@H]1CN1CCc2ccccc2C1
950 s	CC(C)n1cc(S(=O)(=O)Nc2ccc(Cl)cc2F)c2cccnc21
791 s	CCc1ccc(Nc2nc(C(=O)NC3CC3)nc3ccccc23)cc1
739 s	CCN1C(=O)CCc2cc(NC(=O)c3cncc(Br)c3)ccc21
1220 s	CCCn1cc(C(=O)Nc2cccc(F)c2)c(S(=O)(=O)N2CCC(C)CC2)n1
607 s	Cc1cc(N(C)C)n2nc(CN3CCN(c4ccccc4)CC3)nc2n1
568 s	COc1ccc(Br)cc1S(=O)(=O)NCCCn1ccnc1
748 s	CCn1cnc(S(=O)(=O)N2CCC(C(=O)Nc3nc4ccc(OC)cc4s3)CC2)c1
1040 s	CCC(C)NC(=O)c1c(C)oc2ccn(Cc3ccc(F)cc3)c(=O)c12 (stereo unspecified)
840 s	Cc1c(C(=O)N2CCOCC2)cnn1-c1cc(-c2nc(C(C)C)no2)ccn1
718 s	CN(C)c1cnc(-n2cc(NC(=O)NCCc3ccccc3)cn2)nc1
801 s	Cc1noc(COC2CCCN(C(=O)c3ccc(Cl)s3)C2)n1 (stereo unspecified)
1060 s	CCN1C(=O)COc2ccc(-c3noc(-c4ccc(CS(=O)(=O)c5ccccc5)cc4)n3)cc21
759 s	c1ccc(-c2nnc3sc(-c4ccc5c(c4)OCO5)nn23)nc1
759 s	Cc1nnc(N2CCCC(C(=O)NCc3ccccc3Cl)C2)c2nn(-c3ccccc3)c(C)c12 (stereo unspecified)

RP-LC retention time	Compound
889 s	O=C(Nc1ccc2nc3n(c(=O)c2c1)CCCCC3)C(=O)N1CCc2ccccc21
568 s	O=C(NCc1ccco1)N1CCOCC1
1040 s	O=C(Nc1ccc2c(c1)OCO2)C1CCCN(c2ncc(-c3ccccc3)cn2)C1 (stereo unspecified)
955 s	CC1(C(=O)NCc2ccc(F)cc2)CCCN(C(=O)Nc2ccccc2Br)C1 (stereo unspecified)
801 s	COc1ccc(-c2ccc(S(=O)(=O)NCc3ccc(C(=O)O)cc3)cc2)cc1
1270 s	Cc1cc(C)cc(-c2nnc(Cc3nc(-c4ccc(Br)cc4)no3)o2)c1
834 s	CCCC(=O)N1CCCN(C2=NS(=O)(=O)C(c3ccc(Cl)cc3)=C2C)CC1
759 s	COc1ccc(C)cc1NC(=O)NCCNC(=O)c1ccc(NC(=O)C2CCCC2)cc1
868 s	Oc1cc(-n2cccn2)c(O)cc1-n1cccn1
921 s	Cc1ccc(CN2C(=O)COc3ccc(C(=O)NCc4ccc5c(c4)OCO5)cc32)cc1
780 s	COc1cccc(NC(=O)N2CCC3(CC2)NC(=O)c2ccc(Cl)cc2N3C)c1
776 s	CCn1ccc2c(cc(C(=O)Nc3ccc(F)cc3Cl)n2C)c1=O
701 s	O=C(Cn1nc2n(c1=O)CCCCC2)Nc1cccc(F)c1
610 s	O=C(Cc1cccs1)Nc1cccc2ccc(-n3ccnc3)nc12
919 s	Cc1ccc(-c2nnc(Cc3nc(-c4ccc(OCC(C)C)cc4)no3)o2)cc1F
634 s	CS(=O)(=O)Nc1ccc(C2(C(=O)NC3CCCC3)CCCCC2)cc1
784 s	O=C(CC1CCCC1)NCCC1CCN(C(=O)Nc2ccccc2)CC1
887 s	CCC1Oc2ccc(S(=O)(=O)N3CCC(C(=O)NCc4ccc(Cl)cc4)CC3)cc2NC1=O (stereo unspecified)
611 s	FC(F)(F)Oc1ccc(CN2CCN(c3cnn4cnnc4c3)CC2)cc1
1120 s	O=c1c2cc(-c3ccc(Cl)cc3)nn2ccn1Cc1ccc(F)cc1
766 s	O=C(Cc1cccs1)NCCOc1ccc(F)cc1
603 s	CC(C)(C)NCC(O)COc1cccc2[nH]c(=O)[nH]c12 (stereo unspecified)
981 s	COc1ccc(-c2cn3nc(N4CCCC(C(=O)N5CCCC5)C4)sc3n2)cc1 (stereo unspecified)

RP-LC retention time	Compound
806 s	COc1ccc2cc(C(=O)Nc3ccc(F)cc3C)[nH]c2c1
596 s	COC(=O)c1ccccc1NC(=O)N1CCc2nc[nH]c2C1
616 s	Cc1c(C(=O)N2CCOCC2)cc(-c2ccccc2)n1C
774 s	Cc1cc(NS(=O)(=O)c2ccc3c(c2)CCCC(=O)N3)ccc1Br
849 s	O=C(CCn1nnc2cc(-c3noc(-c4ccc(F)cc4)n3)ccc21)N1CCOCC1
834 s	COCCn1cc(CCNC(=O)Nc2ccc(Br)cc2F)c2cccnc21
718 s	O=[N+]([O-])/C=C/c1cc2ccccc2[nH]1
803 s	O=C(Nc1ccc(F)cc1)C1CCCN(c2ncnc3c2nc2n3CCCCC2)C1 (stereo unspecified)
770 s	O=C(CCCn1nnc2ccccc2c1=O)Nc1ccccc1Cl
720 s	Cn1cc(CC(=O)N2CCN(c3ncccn3)CC2)c2ccccc21
775 s	O=C(NCc1ccc2c(c1)OCO2)c1cn(-c2cc(N3CCCC3)ncn2)cn1
1220 s	Cc1ccc(NS(=O)(=O)c2cc(-c3cc(C(F)(F)F)on3)sc2C)c(Cl)c1
558 s	O=C(Cc1cccs1)NCC(c1ccsc1)N1CCCC1 (stereo unspecified)
541 s	O=C(CCC1CCN(c2cc(NC3CC3)ncn2)CC1)NCc1ccccn1
599 s	COc1ccc(OCC(=O)N2CCN(c3cc(C)n4c(C)nnc4n3)CC2)cc1
1150 s	Clc1ccccc1-c1nnc2sc(-c3ccc4ccccc4n3)nn12
990 s	O=C(CC1CCCC1)Nc1cnc(-c2ccccc2)nc1
960 s	CC(C)c1ccc(C(=O)Nc2cc(-c3ccccn3)no2)cc1
576 s	CCCN1CCN(C(=O)c2nc(N3CCSCC3)c3cnn(C)c3n2)CC1
888 s	COc1ccc(-n2c(=O)n(C)c(=O)c3cc(C(=O)NC(C)c4ccc(F)cc4)cnc32)cc1 (stereo unspecified)
605 s	Cc1nnc2n1CCC(NC(=O)CC1=CCCCC1)CC2 (stereo unspecified)
885 s	Cc1ccc(NC(=O)Cn2c(C)nc3onc(C)c3c2=O)cc1Cl
792 s	COc1cccc(NC(=O)c2cccn2Cc2noc(C)n2)c1

RP-LC retention time	Compound
838 s	CCc1ccc(NC(=O)N2CCC(n3cnc4ccc(C)cc4c3=O)CC2)cc1
740 s	CCn1cnc(S(=O)(=O)N2CCCC(C(=O)NC3CCCCCC3)C2)c1 (stereo unspecified)
1010 s	COc1ccc(OC)c(NC(=O)Cc2csc3nc(-c4cccc(Br)c4)cn23)c1
650 s	CCc1nncn1C1CCN(S(=O)(=O)c2ccc(OC)c(OC)c2)CC1
847 s	O=C(c1ccccc1F)N1CCC(CNS(=O)(=O)c2ccc(C(F)(F)F)cc2)CC1
686 s	Cc1nnc2c(=O)n(CC(=O)NCc3cc(F)cc(F)c3)c3cccnc3n12
806 s	O=S(=O)(CCOc1ccccc1)NCc1ccc2c(c1)OCO2
993 s	COc1cc(-c2nc(C3CC(=O)N(c4ccc(Cl)cc4)C3)no2)cc(OC)c1OC (stereo unspecified)
815 s	Cc1ccc(CNC(=O)N2CCN(c3ncccc3-c3nnc(C(C)C)o3)CC2)cc1
935 s	CC(NC(=O)C1=C2CCCN2c2ccc(F)cc2S1(=O)=O)c1ccc(F)cc1 (stereo unspecified)
917 s	Cc1oc(C2CCN(S(=O)(=O)CCc3ccccc3)CC2)nc1C(=O)N1CCCC1
808 s	CC(O)(CNC(=O)c1cccc(C(F)(F)F)c1)c1ccccc1 (stereo unspecified)
694 s	O=S(=O)(c1ccccc1C(F)(F)F)N1CCC2(CCN(c3cccnc3)C2)C1 (stereo unspecified)
851 s	O=C(Nc1cc(F)cc(F)c1)NC1CCN(c2ccccc2)C1=O (stereo unspecified)
746 s	Cc1ccc(NS(=O)(=O)c2cc(-c3[nH]ncc3C(=O)N3CCCC3)oc2C)c(C)c1
805 s	CCCCCC(=O)N1CCCC1
576 s	COCCOCC(=O)NCC1CCCCC(=O)N1 (stereo unspecified)
887 s	CN1C(=O)c2cc(C(=O)Nc3ccccc3Cl)nn2CC1(C)C(=O)NC1CCCCC1 (stereo unspecified)
787 s	CCc1noc(NC(C)=O)c1-c1ccc(C)c(S(=O)(=O)NC(C)CC)c1 (stereo unspecified)
1100 s	Cc1cccc(-c2noc(Cn3c(=O)n(-c4ccc(Cl)cc4)c(=O)c4sccc43)n2)c1
1070 s	COC(=O)c1ccc2c(=O)n(-c3ccc(OC)c(OC)c3)c(N3CCC(C)CC3)nc2c1

Compound	RP-LC retention time
CCc1ccc(C(=O)N2CCC3(C2)C(=O)N(C)c2ccc(OC)cc23)cc1 (stereo unspecified)	840 s

From the METLIN SMRT retention time set (Domingo-Almenara et al. 2019)
